Results on 17 molecules are retold here after patent US20240307362A1 (priority 2019, published 2024).

pIC50: −log10 of the molar value. Values joined by “and” are separate entries in the source; they are usually repeats but may differ in a detail not shown here. Identical values can stand only once. Like-named read-outs stand apart in the source and are kept apart here.

Experiment [1] concerns the target human Bub1 (Homo sapiens (Human), UniProt O43683). Kind of experiment: Bub1 high ATP kinase assay (TR-FRET). The class given is biochemical. The source says: Bub1-inhibitory activity of compounds of the present invention at a high ATP concentration was quantified employing the Bub1 TR-FRET high ATP kinase assay as described in the following paragraphs.
N-terminally His6-tagged recombinant catalytic domain of human Bub1 (amino acids 704-1085), expressed in insect cells (Hi5) and purified by Ni-NTA affinity chromatography and subsequent size exclusion chromatography, was used as enzyme.

The subject of experiment [2] is Ba/F3-EGFR-insSVD. Kind of experiment: Ba/F3 cell survival assay, EGFR-insSVD. The class given is cell-based. The protocol: (§1) 293T cells from ATCC were transfected with pBABEpuro expression constructs for WT EGFR or EGFR-insSVD and pCL-Eco packaging vector using Fugene-6 transfection reagent from Promega. Plates were incubated at 37° C. for 48 h. Retrovirus was harvested by filtering the media supernatant through a 0.45 μm filter.
(§2) Ba/F3 cells purchased from DSMZ were grown in RPMI+10% FBS+10 ng/mL IL-3 and infected with filtered retroviral supernatant at a 1:2 dilution. Polybrene was added to a concentration of 8 μg/mL, plates were spun for 90 min, and incubated overnight at 37° C. 2 μg/mL puromycin was added to the infected cells 24 h after infection and cells were continually grown in the presence of puromycin and 10 ng/mL IL-3. Following stably expressing Ba/F3 cell lines were generated: Ba/F3-EGFR-WT, Ba/F3-EGFR-insSVD, (Ba/F3-vector-control).
For cell survival assays, Ba/F3 cells were grown to a density of 1-2 million cells per mL, spun down and resuspended in media without IL-3, and replated at a concentration 200,000-500,000 cells per mL. The cells ectopically expressing WT EGFR or EGFR-insSVD were plated with 10 ng/mL Millipore Culture grade EGF. The cells ectopically expressing pBABEpuro empty vector were plated with 10 ng/mL IL-3.
2 days later, cells were plated in 50 μL in a 384 well plate at a concentration of 4000 cells per well for cells assayed in the absence of IL-3 and 2000 cells per well for cells assayed in the presence of IL-3. 100 nL of compound was added to each well using a 100 nL pin head, and plates were incubated at 37° C. for 48 h.
Cell viability was measured by adding 20 μL of Cell Titer-Glo Luminescent Cell Viability Reagent diluted 1:3 in PBS. Plates were sealed with Perkin Elmer Top-Seal, inverted several times to mix, and immediately centrifuged at 1000 rpm for 2 min. Plates were incubated in low light conditions for 8-10 min and luminescence was measured.

For experiment [3], the system named is Ba/F3-EGFR-WT. Kind of experiment: Ba/F3 cell survival assay, WT EGFR. The class given is cell-based. The protocol:
as §1, §2
The cells ectopically expressing WT EGFR or EGFR-insSVD were plated with 10 ng/mL Millipore Culture grade EGF. The cells ectopically expressing pBABEpuro empty vector were plated with 10 ng/mL IL-3.
100 nL of compound was added to each well using a 100 nL pin head, and plates were incubated at 37° C. for 48 h.
Cell viability was measured by adding 20 μL of Cell Titer-Glo Luminescent Cell Viability Reagent diluted 1:3 in PBS. Plates were sealed with Perkin Elmer Top-Seal, inverted several times to mix, and immediately centrifuged at 1000 rpm for 2 min.

The mark [4] stands for this setting: read-out: Bub1 high ATP (2 mM) IC50, 2 mM ATP.
Where [5] appears, read: read-out: BA/F3 (insSVD) IC50, cell viability, Cell Titer-Glo, 48 h, with 10 ng/mL EGF, without IL-3.
The mark [6] stands for this setting: read-out: BA/F3 (wild type) IC50, cell viability, Cell Titer-Glo, 48 h, with 10 ng/mL EGF, without IL-3.
Where [7] appears, read: Mus musculus, BaF3, 48 h, read-out: BA/F3 (insSVD) IC50, cell viability, Cell Titer-Glo, 48 h, with 10 ng/mL EGF, without IL-3.
Where [8] appears, read: Mus musculus, BaF3, 48 h, read-out: BA/F3 (wild type) IC50, cell viability, Cell Titer-Glo, 48 h, with 10 ng/mL EGF, without IL-3.
The mark [9] stands for this setting: Bub1 high ATP (2 mM) IC50, 2 mM ATP.

human Bub1, sequence (O43683 704-1085): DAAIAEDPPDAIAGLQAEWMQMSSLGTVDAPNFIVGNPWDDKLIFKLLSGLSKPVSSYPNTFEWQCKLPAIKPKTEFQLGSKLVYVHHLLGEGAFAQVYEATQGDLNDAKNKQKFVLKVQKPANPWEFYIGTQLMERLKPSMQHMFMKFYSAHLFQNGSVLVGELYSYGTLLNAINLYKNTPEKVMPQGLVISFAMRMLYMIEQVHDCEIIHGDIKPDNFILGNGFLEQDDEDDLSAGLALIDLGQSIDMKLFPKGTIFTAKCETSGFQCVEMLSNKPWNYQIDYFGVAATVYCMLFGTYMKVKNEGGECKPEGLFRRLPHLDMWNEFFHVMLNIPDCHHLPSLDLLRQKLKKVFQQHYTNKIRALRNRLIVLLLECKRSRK

Regarding `Cc1cccc(Nc2c(-c3ccncc3OCC3CCO3)[nH]c3c2C(=O)NCC3)c1Cl` (single isomer, unassigned; (-)) [Example 39, (−)-3-(2-chloro-3-methylanilino)-2-{3-[(oxetan-2-yl)methoxy]pyridin-4-yl}-1,5,6,7-tetrahydro-4H-pyrrolo[3,2-c]pyridin-4-one], the pIC50 in experiment [1] (setting [4]) is 5.08; in experiment [2] (setting [5]) it was 6.33; in experiment [3] (setting [6]) it was 5.78.

As for `Cc1cccc(Nc2c(-c3ccncc3OCC3CCO3)[nH]c3c2C(=O)NCC3)c1Cl` (single isomer, unassigned; (+)) [Example 38, (+)-3-(2-chloro-3-methylanilino)-2-{3-[(oxetan-2-yl)methoxy]pyridin-4-yl}-1,5,6,7-tetrahydro-4H-pyrrolo[3,2-c]pyridin-4-one], the pIC50 in experiment [1] (setting [4]) is below 4.70; in experiment [2] (setting [5]), 7.31; in experiment [3] (setting [6]), 6.20.

Take `COc1c(F)cccc1Nc1c(-c2ccncc2OCC2(F)COC2)[nH]c2c1C(=O)NCC2` [Example 61, 3-(3-fluoro-2-methoxyanilino)-2-{3-[(3-fluorooxetan-3-yl)methoxy]pyridin-4-yl}-1,5,6,7-tetrahydro-4H-pyrrolo[3,2-c]pyridin-4-one]: the pIC50 in experiment [1] (setting [4]) was below 4.70; in experiment [2] (setting [7]), 6.35; in experiment [3] (setting [8]), 5.45.

Regarding `COc1c(F)cccc1Nc1c(-c2ccncc2OCC2OCC2(C)C)[nH]c2c1C(=O)NCC2` (single isomer, unassigned; (-)) [Example 53, (−)-2-{3-[(3,3-dimethyloxetan-2-yl)methoxy]pyridin-4-yl}-3-(3-fluoro-2-methoxyanilino)-1,5,6,7-tetrahydro-4H-pyrrolo[3,2-c]pyridin-4-one], the pIC50 in experiment [1] (setting [4]) is below 4.70; in experiment [3] (setting [6]), 5.95.

Consider `O=C1NCCc2[nH]c(-c3ccncc3OCC3COC3)c(Nc3cccc(Cl)c3OC(F)F)c21` [Example 17, 3-[3-chloro-2-(difluoromethoxy)anilino]-2-{3-[(oxetan-3-yl)methoxy]pyridin-4-yl}-1,5,6,7-tetrahydro-4H-pyrrolo[3,2-c]pyridin-4-one], for which the pIC50 in experiment [1] (setting [4]) is 5.12; in experiment [2] (setting [7]), 6.75; in experiment [3] (setting [8]), 5.76.

`COc1c(Cl)cccc1Nc1c(-c2ccncc2OCCC2CCO2)[nH]c2c1C(=O)NCC2` (racemic) [Example 24, 3-(3-chloro-2-methoxyanilino)-2-{3-[2-(oxetan-2-yl)ethoxy]pyridin-4-yl}-1,5,6,7-tetrahydro-4H-pyrrolo[3,2-c]pyridin-4-one]: the values for the pIC50 in experiment [1] (setting [4]), in experiment [2] (setting [7]) and in experiment [3] (setting [8]) were 5.57, 7.76 and 6.20, respectively.

With `COc1c(Cl)cccc1Nc1c(-c2ccncc2OCC2(C)CCN2CC(F)(F)F)[nH]c2c1C(=O)NCC2` (stereo not drawn) [Example 32, 3-(3-chloro-2-methoxyanilino)-2-(3-{[2-methyl-1-(2,2,2-trifluoroethyl)azetidin-2-yl]methoxy}pyridin-4-yl)-1,5,6,7-tetrahydro-4H-pyrrolo[3,2-c]pyridin-4-one], the pIC50 was below 4.70 in experiment [1] (setting [4]), 7.91 in experiment [2] (setting [7]) and 6.53 in experiment [3] (setting [8]).

As to `COc1c(Cl)cccc1Nc1c(-c2ccncc2OCC2(C)CCO2)[nH]c2c1C(=O)NCC2` (single isomer, unassigned; (-)) [Example 47, (−)-3-(3-chloro-2-methoxyanilino)-2-{3-[(2-methyloxetan-2-yl)methoxy]pyridin-4-yl}-1,5,6,7-tetrahydro-4H-pyrrolo[3,2-c]pyridin-4-one], the pIC50 in experiment [1] (setting [4]) is 5.05; in experiment [2] (setting [5]) it was 7.02; in experiment [3] (setting [6]), 6.01.

On to `Cc1cccc(Nc2c(-c3ccncc3OCC3OCC3(C)C)[nH]c3c2C(=O)NCC3)c1Cl` (single isomer, unassigned; (+)) [Example 59, (+)-3-(2-chloro-3-methylanilino)-2-{3-[(3,3-dimethyloxetan-2-yl)methoxy]pyridin-4-yl}-1,5,6,7-tetrahydro-4H-pyrrolo[3,2-c]pyridin-4-one], for which the pIC50 was below 4.70 in experiment [1] (setting [4]), 7.22 in experiment [2] (setting [5]) and 6.18 in experiment [3] (setting [6]).

For the molecule `COc1c(F)cccc1Nc1c(-c2ccncc2OC[C@H]2CCO2)[nH]c2c1C(=O)NCC2` [Example 6, 3-(3-fluoro-2-methoxyanilino)-2-(3-{[(2R)-oxetan-2-yl]methoxy}pyridin-4-yl)-1,5,6,7-tetrahydro-4H-pyrrolo[3,2-c]pyridin-4-one], the figures for the pIC50 in experiment [1] (setting [4]) and in experiment [2] (setting [7]) were below 4.88 and 6.56, respectively.

On to `COc1c(F)cccc1Nc1c(-c2ccncc2OCC2(C)CCO2)[nH]c2c1C(=O)NCC2` (single isomer, unassigned; (-)) [Example 20, (−)-3-(3-fluoro-2-methoxyanilino)-2-{3-[(2-methyloxetan-2-yl)methoxy]pyridin-4-yl}-1,5,6,7-tetrahydro-4H-pyrrolo[3,2-c]pyridin-4-one], for which the pIC50 is 4.84 in experiment [1] (setting [9]); 4.93 and < 4.70 in experiment [1] (setting [4]).

Regarding `COc1c(Cl)cc(F)cc1Nc1c(-c2ccncc2OCC2CCO2)[nH]c2c1C(=O)NCC2` (single isomer, unassigned) [Example 67, 3-(3-chloro-5-fluoro-2-methoxyanilino)-2-(3-{[oxetan-2-yl]methoxy}pyridin-4-yl)-1,5,6,7-tetrahydro-4H-pyrrolo[3,2-c]pyridin-4-one], the pIC50 in experiment [1] (setting [4]) is below 4.70; in experiment [3] (setting [6]), 5.25.

As for `CC1(COc2cnccc2-c2[nH]c3c(c2Nc2cccc(Cl)c2OC(F)F)C(=O)NCC3)CCO1` (single isomer, unassigned) [Example 75, 3-[3-chloro-2-(difluoromethoxy)anilino]-2-(3-{[2-methyloxetan-2-yl]methoxy}pyridin-4-yl)-1,5,6,7-tetrahydro-4H-pyrrolo[3,2-c]pyridin-4-one], the pIC50 is below 4.70 in experiment [1] (setting [9]) and 6.52 in experiment [2] (setting [7]).

`COc1c(Cl)cccc1Nc1c(-c2ccncc2OCC2CCO2)[nH]c2c1C(=O)NCC2` (stereo not drawn) [Example 1, 3-(3-chlor-2-methoxyanilino)-2-[3-(oxetan-2-ylmethoxy)pyridin-4-yl]-1,5,6,7-tetrahydro-4H-pyrrolo[3,2-c]pyridin-4-on]: the pIC50 in experiment [2] (setting [7]) was 7.60; in experiment [3] (setting [8]), 6.10.

`O=C1NCCc2[nH]c(-c3ccncc3OCC3CCO3)c(Nc3cccc4c3CCC4)c21` (stereo not drawn) [Example 36, 3-[(2,3-dihydro-1H-inden-4-yl)amino]-2-{3-[(oxetan-2-yl)methoxy]pyridin-4-yl}-1,5,6,7-tetrahydro-4H-pyrrolo[3,2-c]pyridin-4-one]: the pIC50 in experiment [1] (setting [4]) is below 4.70; in experiment [2] (setting [7]), 6.42.

Take `CC1(C)COC1COc1cnccc1-c1[nH]c2c(c1Nc1cccc(Cl)c1OC(F)F)C(=O)NCC2` (racemic) [Example 71, 3-[3-chloro-2-(difluoromethoxy)anilino]-2-(3-{[3,3-dimethyloxetan-2-yl]methoxy}pyridin-4-yl)-1,5,6,7-tetrahydro-4H-pyrrolo[3,2-c]pyridin-4-one]: the pIC50 was below 4.70 in experiment [1] (setting [4]) and 6.91 in experiment [2] (setting [7]).

As for `COc1c(Cl)cccc1Nc1c(-c2ccncc2OC[C@H]2CCO2)[nH]c2c1C(=O)NCC2` [Example 3, 3-(3-chloro-2-methoxyanilino)-2-(3-{[(2R)-oxetan-2-yl]methoxy}pyridin-4-yl)-1,5,6,7-tetrahydro-4H-pyrrolo[3,2-c]pyridin-4-one], the pIC50 in experiment [1] (setting [4]) is 5.35; in experiment [2] (setting [7]), 6.87.
